Data set [1] has as its system wild type MDA MB 231 cells. The data set can be described thus: Mitochondrial respiration (OCR), Seahorse, wild type MDA MB231 cells. The data set is classed as cell-based. The note with it: cells with active MPC. The method, then: (§1) To determine whether MIN-102 has any effect on pyruvate-mediated mitochondrial respiration, the extracellular flux analyzer Seahorse was used as described in Compan et al. Seahorse experiments were performed in the following cell lines: HeLa (Cervix cancer cells), A549 (lung cancer cells), wild type MDA MB 231, and MDA MB 231 in which MPC2 has been deleted, leading to inactivation of the MPC (MDA MB231 KO). MDA MB231 cells are epithelial breast cancer cells. Cells were incubated with increasing concentrations of the compounds for one hour at 37° C. before oxygen consumption rate (OCR) measurements. The Seahorse analyzer allowed to measure basal and maximal respiration measured upon depolarization with 1 μM CCCP.
(§2) The KO cells have been deleted of the MPC2 gene and therefore they display no MPC activity. […] OCR values are expressed as ratios of OCR in the presence of different concentrations of the tested compound over the OCR in PBS alone.

The test system of a further data set is MDA MB231 KO cells. The data set can be described thus: Mitochondrial respiration (OCR), Seahorse, MDA MB231 KO cells (MPC2 deleted). It counts as cell-based. The note with it: MPC activity genetically deleted (MPC2 KO). The method, then: as §1, §2
The subject of another data set is adiponectin. The data set can be described thus: Plasma adiponectin levels in Sprague Dawley rats (ELISA). The data set is classed as in vivo. Particulars: 54 mg/Kg/day for 7 days, plasma 1 h after last administration, vs vehicle. The method, then:
Evaluation of the effect of Compounds of the Disclosure on adiponectin was performed in Sprague Dawley rats. The rats were treated for 7 days with repeated doses of MIN-102 at 54 mg/Kg/day. Plasma were obtained at 1 h after the last M1N-102 administration. Adiponectin levels were measured by ELISA. Results were represented as mean+standard error of the mean of n=8. Data were analyzed by Kruskal-Wallis followed by the Dunn post-hoc test versus the vehicle group (****,p<0.0001).

For data set [2], the system named is MCD diet fed C57BL6/J mice. The data set can be described thus: Methionine Choline Deficient (MCD) diet NASH mouse model. The data set is classed as in vivo, C57BL6/J male mice. Particulars: 62.5 mg/kg BID orally. The method, then: The preventive effects of MIN-102 was evaluated in a 7-week Methionine Choline Deficient (MCD) diet NASH mouse model (Verdelho Machado et al.). After the acclimation period, C57BL6/J male mice (n=20) were weighed and randomized into 2 homogenous treatment groups based on body weight (n=10/group), put on a MCD diet, and treated BID orally with vehicle or MIN-102 for 7 weeks.
MIN-102 was dosed 62.5 mg/kg BID orally by gavage.
After the acclimation period, C57BL6/J male mice (n=20) were weighed and randomized into 2 homogenous treatment groups based on body weight (n=10/group), put on a MCD diet, and treated BID orally with a vehicle or MIN-102 (125 mg/Kg/day) for 7 weeks. Body weight was measured 3 times/week until the end of the experimental phase.
At 7 weeks of diet/treatment, mice were weighed and treated at ˜08:00 am in the morning, then bled (maximal volume/EDTA) at ˜1:00 pm. Plasma was then immediately isolated and stored at −80° C. prior to assay plasma ALT and AST. The plasma volume left over was stored at −80° C. for eventual additional analysis.
After blood collection, the mice were sacrificed by cervical dislocation under isoflurane anesthesia and exsanguinated with sterile saline.
Histology analysis was performed (oil red O, H&E and Sirius Red staining) for NAFLD scoring system (NAS) for liver steatosis, inflammation, fibrosis and hepatocyte ballooning.

For data set [3] the following is noted: humans, compared with pioglitazone; from PCT/IB2017/057587; cited from earlier work.
Data set [4] deals with mitochondrial pyruvate carrier (MPC) (Homo sapiens (Human), UniProt O95563+Q9Y5U8). In words: MPC inhibitory activity, BRET assay in HEK cells. It counts as cell-based. The method, then: The MPC is a heterodimer composed of two subunits, MPC1 and MPC2. MPC1 and MPC2 interact to form an active carrier. In the assay, MPC2 was fused to Rluc8 (Donor) and MPC1 to Venus (Acceptor). These chimeric proteins were stably expressed in HEK cells. BRET activity was measured following addition of coelenterazine in the culture medium. Coelenterazine enters into cells and in contact with luciferase Rluc8 emits light, which activates the emission of fluorescence by the Acceptor, provided the distance between the Donor and Acceptor is <[…]. If the distance between Donor and Acceptor is >[…], no BRET activity is measured. The level of BRET activity reflects a change in the conformation of the MPC: it is high when the carrier is in a closed conformation, low when the carrier is at rest and intermediary when it transports pyruvate. In this case, the BRET activity is the mean value between the BRET value when the carrier is at rest (Maximal distance between Donor and Acceptor) and the BRET value when it is closed (Shortest distance between Donor and Acceptor)
Sequence of mitochondrial pyruvate carrier (MPC) (Q9Y5U8 whole entry, the tested form may be a part): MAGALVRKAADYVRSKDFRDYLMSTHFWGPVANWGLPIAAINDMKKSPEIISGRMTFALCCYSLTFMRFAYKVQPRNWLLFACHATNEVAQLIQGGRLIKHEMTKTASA
Sequence of mitochondrial pyruvate carrier (MPC) (O95563 whole entry, the tested form may be a part): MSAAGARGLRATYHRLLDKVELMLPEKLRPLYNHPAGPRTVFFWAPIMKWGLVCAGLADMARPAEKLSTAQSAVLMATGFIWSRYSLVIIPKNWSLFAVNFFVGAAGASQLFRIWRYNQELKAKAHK

Turning to `CC(O)c1ccc(CCOc2ccc(CC3SC(=O)NC3=O)cc2)nc1` (racemic) [MIN-102, 5-[[4-[2-[5-(1-hydroxyethyl)pyridin-2-yl]ethoxy]phenyl]methyl]-1,3-thiazolidine-2,4-dione], the “effect on oxygen consumption” value in data set [1] is listed as “inhibits oxygen consumption in a MPC dependent manner”. For the same compound, the “effect on oxygen consumption” value with MDA MB231 KO cells is given as “does not inhibit oxygen consumption”. Besides, the “adiponectin levels in plasma” value in the data set with adiponectin was “significantly increased”. Further, the hepatic cholesterol levels result in data set [2] (7 weeks) is listed as “did not show a change”. In addition, in data set [2] (7 weeks, vs vehicle), the “oil red o staining %” value is recorded as “extremely low”, the “reduction in hepatic triglycerides levels” value stood at 92%, the “reduction of plasma ALT level” value worked out at 78% and the “reduction of plasma AST level” value came to 55%. In data set [2] (7 weeks, histology), the “Mean NAS group score” value is listed as 0.44±01 and the liver inflammation result is reported as “total disappearance of inflammation”. Also, the steatosis score entry in data set [2] (7 weeks, histology, vs vehicle) is on record as “blunted steatosis score”. Further, the body weight loss entry in data set [2] (day 14 to day 50, vs vehicle) is reported as “less severe decline in body weight loss”. In data set [3], the “variability in exposure (PK variability)” value is given as “less variability in exposure than pioglitazone”.

For `CN(CCOc1ccc(CC2SC(=O)NC2=O)cc1)c1ccccn1` (centres unmarked) [Rosiglitazone], the midpoint of inhibition in data set [4], the IC50, lay at 2000 nM.

The record behind these values is patent US20250064791A1, “5-[[4-[2-[5-(1-HYDROXYETHYL)PYRIDIN-2-YL]ETHOXY]PHENYL]METHYL]-1,3-THIAZOLIDINE-2,4-DIONE AND ITS SALTS FOR USE IN THE TREATMENT OF MITOCHONDRIAL DISEASES” (MINORYX THERAPEUTICS S.L., priority 2018, published 2025).
